Data on 4 compounds can be found in PubChem BioAssay AID1259407 (Chemical Carcinogenesis Research Information System (CCRIS), 2018).

Active and inactive are the calls of the source. No rule for the calls is given here.

The data set concerns CCRIS mutagenicity, Ames/micronucleus/aberration tests. Description: CCRIS mutagenicity studies.
Where [1] appears, read: Test System: AMES SALMONELLA TYPHIMURIUM, Strain/Indicator: TA98, Metabolic Activation: RAT, LIVER, S-9, AROCLOR 1254, Method: STANDARD PLATE.
The mark [2] stands for this setting: Test System: AMES SALMONELLA TYPHIMURIUM, Strain/Indicator: TA100, Metabolic Activation: NONE, Method: STANDARD PLATE.

For `CC(=O)c1ccc(S(=O)(=O)NC(=O)NC2CCCCC2)cc1`, the mutagenic call runs as follows: (Test System: AMES SALMONELLA TYPHIMURIUM, Strain/Indicator: TA98, Metabolic Activation: HAMSTER, LIVER, S-9, AROCLOR 1254, Method: STANDARD PLATE) “inactive; negative”; (Test System: AMES SALMONELLA TYPHIMURIUM, Strain/Indicator: TA98, Metabolic Activation: HAMSTER, LIVER, S-9, Method: STANDARD PLATE) “inactive; negative”; (Test System: AMES SALMONELLA TYPHIMURIUM, Strain/Indicator: TA98, Metabolic Activation: MOUSE, LIVER, S-9, AROCLOR 1254, Method: STANDARD PLATE) “inactive; negative”; (Test System: AMES SALMONELLA TYPHIMURIUM, Strain/Indicator: TA98, Metabolic Activation: MOUSE, LIVER, S-9, Method: STANDARD PLATE) “inactive; negative”; (Test System: AMES SALMONELLA TYPHIMURIUM, Strain/Indicator: TA98, Metabolic Activation: NONE, Method: STANDARD PLATE) “inactive; negative”; under setting [1], “inactive; negative”. The mutagenic call (Test System: AMES SALMONELLA TYPHIMURIUM, Strain/Indicator: TA98, Metabolic Activation: RAT, LIVER, S-9, Method: STANDARD PLATE) is “inactive; negative”; the mutagenic call (Test System: AMES SALMONELLA TYPHIMURIUM, Strain/Indicator: TA100, Metabolic Activation: HAMSTER, LIVER, S-9, AROCLOR 1254, Method: STANDARD PLATE) is “inactive; negative”; the mutagenic call (Test System: AMES SALMONELLA TYPHIMURIUM, Strain/Indicator: TA100, Metabolic Activation: HAMSTER, LIVER, S-9, Method: STANDARD PLATE) is “inactive; negative”; the mutagenic call (Test System: AMES SALMONELLA TYPHIMURIUM, Strain/Indicator: TA100, Metabolic Activation: MOUSE, LIVER, S-9, AROCLOR 1254, Method: STANDARD PLATE) was “inactive; negative”; the mutagenic call (Test System: AMES SALMONELLA TYPHIMURIUM, Strain/Indicator: TA100, Metabolic Activation: MOUSE, LIVER, S-9, Method: STANDARD PLATE) is “inactive; negative”; the mutagenic call under setting [2] is “inactive; negative”. For the same compound, the mutagenic call is, setting by setting: (Test System: AMES SALMONELLA TYPHIMURIUM, Strain/Indicator: TA100, Metabolic Activation: RAT, LIVER, S-9, AROCLOR 1254, Method: STANDARD PLATE) “inactive; negative”; (Test System: AMES SALMONELLA TYPHIMURIUM, Strain/Indicator: TA100, Metabolic Activation: RAT, LIVER, S-9, Method: STANDARD PLATE) “inactive; negative”; (Test System: AMES SALMONELLA TYPHIMURIUM, Strain/Indicator: TA1535, Metabolic Activation: HAMSTER, LIVER, S-9, AROCLOR 1254, Method: STANDARD PLATE) “inactive; negative”; (Test System: AMES SALMONELLA TYPHIMURIUM, Strain/Indicator: TA1535, Metabolic Activation: HAMSTER, LIVER, S-9, Method: STANDARD PLATE) “inactive; negative”; (Test System: AMES SALMONELLA TYPHIMURIUM, Strain/Indicator: TA1535, Metabolic Activation: MOUSE, LIVER, S-9, AROCLOR 1254, Method: STANDARD PLATE) “inactive; negative”; (Test System: AMES SALMONELLA TYPHIMURIUM, Strain/Indicator: TA1535, Metabolic Activation: MOUSE, LIVER, S-9, Method: STANDARD PLATE) “inactive; negative”. Besides, the mutagenic call runs as follows: (Test System: AMES SALMONELLA TYPHIMURIUM, Strain/Indicator: TA1535, Metabolic Activation: NONE, Method: STANDARD PLATE) “inactive; negative”; (Test System: AMES SALMONELLA TYPHIMURIUM, Strain/Indicator: TA1535, Metabolic Activation: RAT, LIVER, S-9, AROCLOR 1254, Method: STANDARD PLATE) “inactive; negative”; (Test System: AMES SALMONELLA TYPHIMURIUM, Strain/Indicator: TA1535, Metabolic Activation: RAT, LIVER, S-9, Method: STANDARD PLATE) “inactive; negative”; (Test System: AMES SALMONELLA TYPHIMURIUM, Strain/Indicator: TA1537, Metabolic Activation: HAMSTER, LIVER, S-9, AROCLOR 1254, Method: STANDARD PLATE) “inactive; negative”; (Test System: AMES SALMONELLA TYPHIMURIUM, Strain/Indicator: TA1537, Metabolic Activation: HAMSTER, LIVER, S-9, Method: STANDARD PLATE) “inactive; negative”; (Test System: AMES SALMONELLA TYPHIMURIUM, Strain/Indicator: TA1537, Metabolic Activation: MOUSE, LIVER, S-9, AROCLOR 1254, Method: STANDARD PLATE) “inactive; negative”. The mutagenic call reads like this: (Test System: AMES SALMONELLA TYPHIMURIUM, Strain/Indicator: TA1537, Metabolic Activation: MOUSE, LIVER, S-9, Method: STANDARD PLATE) “inactive; negative”; (Test System: AMES SALMONELLA TYPHIMURIUM, Strain/Indicator: TA1537, Metabolic Activation: NONE, Method: STANDARD PLATE) “inactive; negative”; (Test System: AMES SALMONELLA TYPHIMURIUM, Strain/Indicator: TA1537, Metabolic Activation: RAT, LIVER, S-9, AROCLOR 1254, Method: STANDARD PLATE) “inactive; negative”; (Test System: AMES SALMONELLA TYPHIMURIUM, Strain/Indicator: TA1537, Metabolic Activation: RAT, LIVER, S-9, Method: STANDARD PLATE) “inactive; negative”; (Test System: AMES SALMONELLA TYPHIMURIUM, Strain/Indicator: TA1538, Metabolic Activation: HAMSTER, LIVER, S-9, AROCLOR 1254, Method: STANDARD PLATE) “inactive; negative”; (Test System: AMES SALMONELLA TYPHIMURIUM, Strain/Indicator: TA1538, Metabolic Activation: HAMSTER, LIVER, S-9, Method: STANDARD PLATE) “inactive; negative”. The mutagenic call is, setting by setting: (Test System: AMES SALMONELLA TYPHIMURIUM, Strain/Indicator: TA1538, Metabolic Activation: MOUSE, LIVER, S-9, AROCLOR 1254, Method: STANDARD PLATE) “inactive; negative”; (Test System: AMES SALMONELLA TYPHIMURIUM, Strain/Indicator: TA1538, Metabolic Activation: MOUSE, LIVER, S-9, Method: STANDARD PLATE) “inactive; negative”; (Test System: AMES SALMONELLA TYPHIMURIUM, Strain/Indicator: TA1538, Metabolic Activation: NONE, Method: STANDARD PLATE) “inactive; negative”; (Test System: AMES SALMONELLA TYPHIMURIUM, Strain/Indicator: TA1538, Metabolic Activation: RAT, LIVER, S-9, AROCLOR 1254, Method: STANDARD PLATE) “inactive; negative”; (Test System: AMES SALMONELLA TYPHIMURIUM, Strain/Indicator: TA1538, Metabolic Activation: RAT, LIVER, S-9, Method: STANDARD PLATE) “inactive; negative”; (Test System: E. COLI, Strain/Indicator: WP2 UVRA, Metabolic Activation: HAMSTER, LIVER, S-9, AROCLOR 1254, Method: STANDARD PLATE) “inactive; negative”. Besides, the mutagenic call reads like this: (Test System: E. COLI, Strain/Indicator: WP2 UVRA, Metabolic Activation: HAMSTER, LIVER, S-9, Method: STANDARD PLATE) “inactive; negative”; (Test System: E. COLI, Strain/Indicator: WP2 UVRA, Metabolic Activation: MOUSE, LIVER, S-9, AROCLOR 1254, Method: STANDARD PLATE) “inactive; negative”; (Test System: E. COLI, Strain/Indicator: WP2 UVRA, Metabolic Activation: MOUSE, LIVER, S-9, Method: STANDARD PLATE) “inactive; negative”; (Test System: E. COLI, Strain/Indicator: WP2 UVRA, Metabolic Activation: NONE, Method: STANDARD PLATE) “inactive; negative”; (Test System: E. COLI, Strain/Indicator: WP2 UVRA, Metabolic Activation: RAT, LIVER, S-9, AROCLOR 1254, Method: STANDARD PLATE) “inactive; negative”; (Test System: E. COLI, Strain/Indicator: WP2 UVRA, Metabolic Activation: RAT, LIVER, S-9, Method: STANDARD PLATE) “inactive; negative”.

`O=C=Nc1ccc(Cc2ccccc2N=C=O)cc1`: the mutagenic call (Test System: AMES SALMONELLA TYPHIMURIUM, Strain/Indicator: TA100, Metabolic Activation: RAT, LIVER, S-9, AROCLOR 1254 (30%), Method: STANDARD PLATE) is “inactive; negative”.

Turning to `CC(=O)OC(C(C)=O)N(C)N=O` (stereo not drawn), for the setting “Test System: AMES SALMONELLA TYPHIMURIUM, Strain/Indicator: TA1535, Metabolic Activation: NONE, Method: PREINCUBATION”, the mutagenic call is “active; positive”.

For `CC1(C)CCC[C@]2(C)C(C=O)C(C=O)=CC[C@@H]12` (stereo partly drawn), the mutagenic call is, setting by setting: under setting [1], “inactive; negative”; under setting [2], “inactive; negative”; (Test System: AMES SALMONELLA TYPHIMURIUM, Strain/Indicator: TA2637, Metabolic Activation: NONE, Method: STANDARD PLATE) “inactive; negative”; (Test System: CHINESE HAMSTER V-79, Strain/Indicator: V-79/6-THIOGUANINE (HGPRT), Metabolic Activation: NONE) “inactive; negative”.
